Our source for the IC50 values is patent US11639353B2, “Cyclobutanes- and azetidine-containing mono and spirocyclic compounds as αV integrin inhibitors” (BRISTOL-MYERS SQUIBB COMPANY, priority 2016, dated 2023).

SMILES strings stand for the structures. Counter-ions that a name gives are not always drawn.

The IC50 is the concentration that gives 50% inhibition. A high value points to lower potency.

T1 sequence (P06756 31-992 limits assumed): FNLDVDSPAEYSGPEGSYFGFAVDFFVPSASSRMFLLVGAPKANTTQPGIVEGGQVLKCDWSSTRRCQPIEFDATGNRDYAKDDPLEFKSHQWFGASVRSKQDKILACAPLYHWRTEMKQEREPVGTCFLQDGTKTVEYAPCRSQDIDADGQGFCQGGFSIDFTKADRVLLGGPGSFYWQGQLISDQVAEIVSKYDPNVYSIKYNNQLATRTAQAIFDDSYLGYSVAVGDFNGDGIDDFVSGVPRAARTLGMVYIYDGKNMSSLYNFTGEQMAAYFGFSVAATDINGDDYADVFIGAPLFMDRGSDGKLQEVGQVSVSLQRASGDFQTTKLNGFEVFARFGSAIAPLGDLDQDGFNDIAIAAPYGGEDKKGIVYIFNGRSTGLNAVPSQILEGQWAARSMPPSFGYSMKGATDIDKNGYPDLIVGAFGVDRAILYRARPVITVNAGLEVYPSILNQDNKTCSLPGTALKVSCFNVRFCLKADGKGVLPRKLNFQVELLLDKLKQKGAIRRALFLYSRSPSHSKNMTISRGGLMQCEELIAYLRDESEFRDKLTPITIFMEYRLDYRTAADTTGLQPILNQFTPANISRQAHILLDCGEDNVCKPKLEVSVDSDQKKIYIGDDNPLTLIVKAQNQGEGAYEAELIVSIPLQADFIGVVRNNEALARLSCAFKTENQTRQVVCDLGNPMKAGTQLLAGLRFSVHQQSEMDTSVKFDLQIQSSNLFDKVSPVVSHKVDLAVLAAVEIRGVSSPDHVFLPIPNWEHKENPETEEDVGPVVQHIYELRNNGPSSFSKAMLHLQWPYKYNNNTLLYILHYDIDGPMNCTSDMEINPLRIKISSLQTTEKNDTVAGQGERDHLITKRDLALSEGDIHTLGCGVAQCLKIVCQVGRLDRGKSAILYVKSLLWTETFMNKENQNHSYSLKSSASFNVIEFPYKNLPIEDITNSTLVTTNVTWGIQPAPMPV
T1 sequence (P18564 22-707 limits assumed): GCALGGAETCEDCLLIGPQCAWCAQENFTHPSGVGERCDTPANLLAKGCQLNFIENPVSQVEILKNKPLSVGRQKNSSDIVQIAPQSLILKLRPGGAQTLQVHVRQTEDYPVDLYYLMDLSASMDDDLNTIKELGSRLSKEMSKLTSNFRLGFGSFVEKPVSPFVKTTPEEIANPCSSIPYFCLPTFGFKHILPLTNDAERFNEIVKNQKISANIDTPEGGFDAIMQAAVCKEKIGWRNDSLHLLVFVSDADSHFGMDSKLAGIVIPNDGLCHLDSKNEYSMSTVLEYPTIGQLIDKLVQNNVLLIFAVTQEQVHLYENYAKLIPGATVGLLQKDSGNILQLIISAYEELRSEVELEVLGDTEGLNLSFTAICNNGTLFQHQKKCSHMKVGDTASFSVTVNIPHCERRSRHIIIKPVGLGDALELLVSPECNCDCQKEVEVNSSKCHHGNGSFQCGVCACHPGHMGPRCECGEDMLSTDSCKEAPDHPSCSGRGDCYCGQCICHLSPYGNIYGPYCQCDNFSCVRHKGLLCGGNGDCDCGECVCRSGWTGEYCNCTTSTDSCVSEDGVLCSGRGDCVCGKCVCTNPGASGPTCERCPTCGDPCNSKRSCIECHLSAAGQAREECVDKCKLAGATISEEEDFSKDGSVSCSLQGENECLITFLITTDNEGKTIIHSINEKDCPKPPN

The assay has as its target T1, human αVβ6 (Homo sapiens, UniProt P06756+P18564).
T1 construct: purchased R & D systems 3817-AV
As to the kind of experiment: human αVβ6 HTRF binding assay. The following applies: alternatively SPA-based assay. The method, then:
All binding assays used the HTRF (homogeneous time resolved fluorescence) technology from Cisbio International, therefore all assays are described as HTRF binding assays. The assay results for the Examples are listed above together with the characterization data. The HTRF binding assays are established for the following integrins: human αVβ6, human αVβ1, human αVβ3, human αVβ5, and human αVβ8. All assays used the following assay buffer: 20 mM Tris, pH 7.4, 1 mM MgCl2, 1 mM MnCl2, 0.01% Tween 20, and 0.01% BSA. Alternatively, a SPA-based assay was used for evaluation of receptor binding.
The following describes the components and a representative procedure for the human αVβ6 HTRF binding assay: Recombinant human αVβ6 Integrin (R & D systems, 3817-AV) was biotinylated. Biotinylated human αVβ6 Integrin was added to assay vessel at a final concentration of 1.25 nM. FITC-conjugated fibronectin (Cytoskeleton, FNR02) was then added at the final concentration of 5 nM. The mixture was centrifuged at 600 rpm for three minutes using Thermo Fisher Heraeus Multifuge X3 centrifuge and then incubated at RT for an hour. Streptavidin Terbium (Cisbio international 610STLB) was then added at the final concentration of 0.625 nM. The resulting mixture was centrifuged at 600 rpm for three minutes using Thermo Fisher Heraeus Multifuge X3 centrifuge and then incubated at room temperature overnight in dark before reading HTRF signals.
The SPA-based assay was carried out according to the protocol and procedures similar to the ones described in the following reference with appropriate modifications to agents and ligands which are readily understood by one skilled in the art: Pachter J A, Zhang R, Mayer-Ezell R., “Scintillation proximity assay to measure binding of soluble fibronectin to antibody-captured αVβ1 integrin” Anal Biochem. 1995 Sep. 1; 230(1):101-7.
In the case of `O=C(N[C@@H](CC(=O)N1CC(CCc2ccc3c(n2)NCCC3)C1)C(=O)O)OCc1ccccc1` [Example 7, (S)-2-(((Benzyloxy)carbonyl)amino)-4-oxo-4-(3-(2-(5,6,7,8-tetrahydro-1,8-naphthyridin-2-yl)ethyl)azetidin-1-yl)butanoic acid], the IC50 stood at 64 nM.

In turn, `O=C(O)C[C@@H](c1ccc2c(c1)OCC2)N1CC(CCCCc2ccc3c(n2)NCCC3)C1=O` (some centres unmarked) [Example 105] yielded an IC50 of 3.9 nM.

Consider `COc1ccc([C@H](CC(=O)O)NC2CN(CCCc3ccc4c(n3)NCCC4)C2)cn1` [Example 11, (S)-3-(6-Methoxypyridin-3-yl)-3-((1-(3-(5,6,7,8-tetrahydro-1,8-naphthyridin-2-yl)propyl)azetidin-3-yl)amino)propanoic acid], for which the IC50 amounted to 0.5 nM.

With `O=C(O)C[C@@H](c1ccc(F)c(F)c1)N1CC(F)(CCCCc2ccc3c(n2)NCCC3)C1` [Example 164], the IC50 worked out at 2.6 nM. Compared with the last compound, the IC50 is about 5.2-fold higher.

Take `COc1ccc([C@H](CC(=O)O)N2CC(CCCCc3ccc4c(n3)NCCC4)C2=O)cn1` (some centres unmarked) [Example 68]: the IC50 is 2.4 nM.

Compound `O=C(O)C[C@@H](c1cc(F)cc(F)c1)N1CC(F)(CCCCc2ccc3c(n2)NCCC3)C1` [Example 162, (S)-3-(3,5-difluorophenyl)-3-(3-fluoro-3-(4-(5,6,7,8-tetrahydro-1,8-naphthyridin-2-yl)butyl)azetidin-1-yl)propanoic acid] yielded an IC50 of 2 nM.

In turn, `O=C(O)C[C@H](NC(=O)[C@H]1C[C@@H](CCc2ccc3c(n2)NCCC3)C1)c1cncnc1` [Example 91] came in with an IC50 of 2.9 nM. The IC50 values of the last two compounds are within 1.5-fold of each other.

Regarding `Cc1ncc([C@@H](CC(=O)O)N2CC(COCCc3ccc4c(n3)NCCC4)C2)cn1` [example 128, (R)-3-(2-methylpyrimidin-5-yl)-3-(3-((2-(5,6,7,8-tetrahydro-1,8-naphthyridin-2-yl)ethoxy)methyl)azetidin-1-yl)propanoic acid], the IC50 was found to be 38 nM.

Regarding `O=C(O)[C@H](CN1CC(CCCc2ccc3c(n2)NCCC3)C1=O)NS(=O)(=O)c1ccc(F)cc1` (single isomer, unassigned) [Example 187], the IC50 is 24 nM.

`O=C(O)CC(c1cccc(N2CCOCC2)c1)C1CC(CCCCc2ccc3c(n2)NCCC3)C1` (centres unmarked) [Example 146, 3-(3-Morpholinophenyl)-3-(3-(4-(5,6,7,8-tetrahydro-1,8-naphthyridin-2-yl)butyl)cyclobutyl)propanoic acid] registered a half-inhibitory concentration (IC50) of 14 nM. This IC50 lies about 1.7-fold lower than the previous one.

For `COc1ccc(C(CC(=O)O)N2CC(OCCCc3ccc4c(n3)NCCC4)C2)cn1` (centres unmarked) [Example 134, 3-(6-methoxypyridin-3-yl)-3-(3-(3-(5,6,7,8-tetrahydro-1,8-naphthyridin-2-yl)propoxy)azetidin-1-yl)propanoic acid, 2 TFA], the IC50 amounted to 4.6 nM.

The compound `O=C(O)C[C@H](NC1CC2(C1)CN(CCCc1ccc3c(n1)NCCC3)C2)c1cc(Cl)cc(Cl)c1` [Example 79] gave an IC50 of 3.2 nM.

For the compound `COc1ccc([C@H](CC(=O)O)NC(=O)C2(F)CN(CCc3ccc4c(n3)NCCC4)C2)cn1` [Example 46], the IC50 was 0.6 nM.

Consider `COc1ccc(C(CC(=O)O)C2CN(CCCCc3ccc4c(n3)NCCC4)C2)cc1F` (centres unmarked) [Example 143], for which the IC50 is 8.5 nM.

Turning to `COc1ccc([C@H](CC(=O)O)NC(=O)C2CC3(C2)CN(CCCc2ccc4c(n2)NCCC4)C3)cn1` [Example 32], the IC50 was determined as 130 nM. Compared with the last compound, the IC50 is about 15-fold higher.

For `O=C(O)C[C@H](NC1CN(CCCc2ccc3c(n2)NCCC3)C1)c1cc(Cl)cc(Cl)c1` [Example 74], the IC50 was 0.5 nM.

Regarding `COc1ccc([C@H](CC(=O)O)N2CC(c3ccc(-c4ccc5c(n4)NCCC5)cc3)C2=O)cn1` (single isomer, unassigned) [Example 184], the IC50 was found to be 4 nM.

`O=C(O)CC(c1cnc2ccccc2c1)C1CC2(C1)CN(CCCc1ccc3c(n1)NCCC3)C2` (centres unmarked) [Example 117] gave a half-inhibitory concentration (IC50) of 2.7 nM.

Compound `COc1ccc(C(NC(=O)C2CC(CCc3ccc4c(n3)NCCC4)C2)C(C)(C)C(=O)O)cn1` (centres unmarked) [Example 191] had an IC50 of 4300 nM. Compared with the last compound, the IC50 is about 1600-fold higher.

As for `COc1ccc(C(NC(=O)C2CC(CCc3ccc4c(n3)NCCC4)C2)C(C)(C)C(=O)O)cn1` (centres unmarked) [Example 192], the IC50 was 4400 nM.
